Here are results for 6 compounds from the NIST ThermoML archive (doi:10.1016/j.jct.2015.01.013).

The conditions of data set [1]: 298.15 K; 101.33 kPa; Liquid; Vibrating tube method.
Data set [2] in a line: excess molar enthalpy (molar enthalpy of mixing); xn = mol fraction of the nth substance listed. As to conditions: 298.15 K, 101 kPa, Liquid, Flow calorimetry.

± gives the expanded uncertainty stated by the source.

As a reminder, the mass density is the mass of a sample divided by its volume. As to `CO` [methanol], in data set [1], the mass density is recorded as 786.2 ± 0.2 kg/m3.
Same read-out and setting: the same measure for `C=C(C)CC(C)(C)C` [2,4,4-trimethyl-1-pentene]: 710.7 ± 0.2 kg/m3.
Turning to `C1CCCCC1` [cyclohexane] + CC(C)O, the excess molar enthalpy in data set [2] (x2 = 0.0995) amounted to 0.124 ± 0.00598 kcal/mol; in data set [2] (x2 = 0.2009), 0.168 ± 0.00813 kcal/mol; in data set [2] (x2 = 0.3009), 0.191 ± 0.00932 kcal/mol; in data set [2] (x2 = 0.4014), 0.199 ± 0.00956 kcal/mol; in data set [2] (x2 = 0.5016), 0.191 ± 0.00932 kcal/mol; in data set [2] (x2 = 0.6011), 0.173 ± 0.00837 kcal/mol. Moreover, the excess molar enthalpy in data set [2] (x2 = 0.701) turned out to be 0.143 ± 0.00693 kcal/mol; in data set [2] (x2 = 0.8005), 0.105 ± 0.00526 kcal/mol; in data set [2] (x2 = 0.9005), 0.0571 ± 0.00287 kcal/mol.
For the compound `CC(C)O` [propan-2-ol], in data set [1], the mass density was found to be 780.8 ± 0.2 kg/m3.
Turning to `C=C(C)CC(C)(C)C` [2,4,4-trimethyl-1-pentene] + CO, the excess molar enthalpy was found to be 0.0571 ± 0.00287 kcal/mol in data set [2] (x2 = 0.023); 0.107 ± 0.00526 kcal/mol in data set [2] (x2 = 0.1); 0.125 ± 0.00621 kcal/mol in data set [2] (x2 = 0.198); 0.138 ± 0.00669 kcal/mol in data set [2] (x2 = 0.301); 0.14 ± 0.00669 kcal/mol in data set [2] (x2 = 0.398); 0.14 ± 0.00669 kcal/mol in data set [2] (x2 = 0.498). Also, the excess molar enthalpy worked out at 0.135 ± 0.00645 kcal/mol in data set [2] (x2 = 0.598), 0.122 ± 0.00598 kcal/mol in data set [2] (x2 = 0.698), 0.102 ± 0.00502 kcal/mol in data set [2] (x2 = 0.798) and 0.0674 ± 0.00335 kcal/mol in data set [2] (x2 = 0.899).
In the case of `C1CCCCC1` [cyclohexane], the mass density in data set [1] is given as 773.5 ± 0.2 kg/m3.
